How the values were obtained:
Liver microsome [1] = experiment: Metabolic stability in rat liver microsomes assessed as metabolite M4 (9-methyl-3-(2-(3-(pyrimidin-5-yl)pyridin-2-yloxy)vinyl)-9H-pyrido[2,3-b]indole 1-oxide) formation at 1 uM after 60 mins by LC-MS/MS analysis; assay type: ADME; details: 1 h
Liver microsome [2] = experiment: Metabolic stability in rat liver microsomes assessed as metabolite M5 (2-(2-(9-methyl-9H-pyrido[2,3-b]indol-3-yl)vinyloxy)-3-(pyrimidin-5-yl)pyridine 1-oxide) formation at 1 uM after 60 mins by LC-MS/MS analysis; assay type: ADME; details: 1 h
[3] = molecular target: cGMP-specific 3',5'-cyclic phosphodiesterase (Homo sapiens) (UniProt O76074); experiment: Inhibition of N-terminal GST-tagged human recombinant PDE5A assessed as substrate hydrolysis using [3H]cGMP as substrate at 1 uM after 30 mins by two-step radiometric assay
Liver microsome [4] = experiment: Metabolic stability in rat liver microsomes assessed as metabolite M1 (3-(2-(3-(pyrimidin-5-yl)pyridin-2-yloxy)ethyl)-9H-pyrido[23-b]indole 1-oxide) formation at 1 uM after 60 mins by LC-MS/MS analysis; assay type: ADME; details: 1 h
[5] = molecular target: T1, cAMP and cAMP-inhibited cGMP 3',5'-cyclic phosphodiesterase 10A (Homo sapiens, UniProt Q9Y233); experiment: Inhibition of N-terminal GST-tagged human recombinant PDE10A assessed as substrate hydrolysis using [3H]cAMP as substrate after 30 mins by two-step radiometric assay
[6] = Metabolic stability in rat liver microsomes assessed as compound remaining at 1 uM after 60 mins; assay type: ADME; details: read-out: Stability
[7] = molecular target: High affinity cAMP-specific and IBMX-insensitive 3',5'-cyclic phosphodiesterase 8A (Homo sapiens) (UniProt O60658); experiment: Inhibition of N-terminal GST-tagged human recombinant PDE8A assessed as substrate hydrolysis using [3H]cAMP as substrate at 1 uM after 30 mins by two-step radiometric assay
Liver microsome [8] = experiment: Metabolic stability in rat liver microsomes assessed as metabolite M3 (1-(9H-pyrido[2,3-b]indol-3-yl)-2-(3-(pyrimidin-5-yl)pyridin-2-yloxy)ethanol) formation at 1 uM after 60 mins by LC-MS/MS analysis; assay type: ADME; details: 1 h
[9] = molecular target: cGMP-dependent 3',5'-cyclic phosphodiesterase (Homo sapiens) (UniProt O00408); experiment: Inhibition of N-terminal GST-tagged human recombinant PDE2A assessed as substrate hydrolysis using cAMP as substrate at 10 uM after 30 mins by homogenous time-resolved fluorescence method
[10] = Retention time of the compound by HPLC analysis; assay type: physicochemical
Liver microsome [11] = experiment: Metabolic stability in rat liver microsomes assessed as metabolite M9 (9-methyl-3-(2-(3-(pyrimidin-5-yl)pyridin-2-yloxy)vinyl)-9H-pyrido[2,3-b]indole) formation at 1 uM after 60 mins by LC-MS/MS analysis; assay type: ADME; details: 1 h
[12] = Metabolic stability in human liver microsomes assessed as compound remaining at 1 uM after 60 mins; assay type: ADME; details: read-out: Stability
[13] = molecular target: cGMP-inhibited 3',5'-cyclic phosphodiesterase 3A (Homo sapiens) (UniProt Q14432); experiment: Inhibition of N-terminal GST-tagged human recombinant PDE3A assessed as substrate hydrolysis using cAMP as substrate at 1 uM after 30 mins by homogenous time-resolved fluorescence method
[14] = molecular target: Dual specificity calcium/calmodulin-dependent 3',5'-cyclic nucleotide phosphodiesterase 1A (Homo sapiens) (UniProt P54750); experiment: Inhibition of N-terminal GST-tagged human recombinant PDE1A assessed as substrate hydrolysis using [3H]cAMP as substrate at 1 uM after 30 mins by two-step radiometric assay
Homo sapiens = species on record: Homo sapiens; experiment: Selectivity for human recombinant PDE10A over human recombinant PDE2A
[15] = molecular target: 3',5'-cyclic-AMP phosphodiesterase 4D (Homo sapiens) (UniProt Q08499); experiment: Inhibition of N-terminal GST-tagged human recombinant PDE4D assessed as substrate hydrolysis using [3H]cAMP as substrate at 1 uM after 30 mins by two-step radiometric assay
Liver microsome [16] = experiment: Metabolic stability in rat liver microsomes assessed as metabolite M8 (1-(9-methyl-9H-pyrido[2,3-b]indol-3-yl)-2-(3-(pyrimidin-5-yl)pyridin-2-yloxy)ethanol) formation at 1 uM after 60 mins by LC-MS/MS analysis; assay type: ADME; details: 1 h
[17] = molecular target: Dual 3',5'-cyclic-AMP and -GMP phosphodiesterase 11A (Homo sapiens) (UniProt Q9HCR9); experiment: Inhibition of N-terminal GST-tagged human recombinant PDE11A assessed as substrate hydrolysis using [3H]cAMP as substrate at 1 uM after 30 mins by two-step radiometric assay
Liver microsome [18] = experiment: Metabolic stability in rat liver microsomes assessed as metabolite M7 (9-methyl-3-(2-(3-(pyrimidin-5-yl)pyridin-2-yloxy)vinyl)-9H-pyrido[2,3-b]indole) formation at 1 uM after 60 mins by LC-MS/MS analysis; assay type: ADME; details: 1 h
Liver microsome [19] = experiment: Metabolic stability in rat liver microsomes assessed as metabolite M6 (3-(2-(3-(pyrimidin-5-yl)pyridin-2-yloxy)ethyl)-9H-pyrido[2,3-b]indole) formation at 1 uM after 60 mins by LC-MS/MS analysis; assay type: ADME; details: 1 h
[20] = molecular target: High affinity cGMP-specific 3',5'-cyclic phosphodiesterase 9A (Homo sapiens) (UniProt O76083); experiment: Inhibition of N-terminal GST-tagged human recombinant PDE9A assessed as substrate hydrolysis using [3H]cGMP as substrate at 1 uM after 30 mins by two-step radiometric assay
[21] = molecular target: cGMP-dependent 3',5'-cyclic phosphodiesterase (Homo sapiens) (UniProt O00408); experiment: Inhibition of N-terminal GST-tagged human recombinant PDE2A assessed as substrate hydrolysis using cAMP as substrate at 1 uM after 30 mins by homogenous time-resolved fluorescence method
[22] = molecular target: T1, cAMP and cAMP-inhibited cGMP 3',5'-cyclic phosphodiesterase 10A; experiment: Inhibition of N-terminal GST-tagged human recombinant PDE10A assessed as substrate hydrolysis using [3H]cAMP as substrate at 1 uM after 30 mins by two-step radiometric assay
Liver microsome [23] = experiment: Metabolic stability in rat liver microsomes assessed as metabolite M2 (9-methyl-3-(2-(3-(pyrimidin-5-yl)pyridin-2-yloxy)vinyl)-9H-pyrido[2,3-b]indole 9-oxide) formation at 1 uM after 60 mins by LC-MS/MS analysis; assay type: ADME; details: 1 h
[24] = molecular target: High affinity 3',5'-cyclic-AMP phosphodiesterase 7A (Homo sapiens) (UniProt Q13946); experiment: Inhibition of N-terminal GST-tagged human recombinant PDE7A assessed as substrate hydrolysis using [3H]cAMP as substrate at 1 uM after 30 mins by two-step radiometric assay
Sequence of High affinity 3',5'-cyclic-AMP phosphodiesterase 7A (Homo sapiens) (Q13946 whole entry): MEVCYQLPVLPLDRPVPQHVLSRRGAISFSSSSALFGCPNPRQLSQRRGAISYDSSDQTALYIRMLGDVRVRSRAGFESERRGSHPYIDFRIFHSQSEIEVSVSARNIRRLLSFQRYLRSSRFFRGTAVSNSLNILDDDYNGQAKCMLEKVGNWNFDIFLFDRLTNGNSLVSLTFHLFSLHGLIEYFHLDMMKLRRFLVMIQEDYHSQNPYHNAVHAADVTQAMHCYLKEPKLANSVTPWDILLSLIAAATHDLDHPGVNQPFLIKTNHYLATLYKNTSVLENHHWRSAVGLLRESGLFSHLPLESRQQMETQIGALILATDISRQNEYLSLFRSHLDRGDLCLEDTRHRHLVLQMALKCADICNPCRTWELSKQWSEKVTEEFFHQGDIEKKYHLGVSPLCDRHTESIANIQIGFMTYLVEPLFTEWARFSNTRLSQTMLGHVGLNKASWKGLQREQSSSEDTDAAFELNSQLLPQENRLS

Sequence of cGMP-dependent 3',5'-cyclic phosphodiesterase (Homo sapiens) (O00408 whole entry): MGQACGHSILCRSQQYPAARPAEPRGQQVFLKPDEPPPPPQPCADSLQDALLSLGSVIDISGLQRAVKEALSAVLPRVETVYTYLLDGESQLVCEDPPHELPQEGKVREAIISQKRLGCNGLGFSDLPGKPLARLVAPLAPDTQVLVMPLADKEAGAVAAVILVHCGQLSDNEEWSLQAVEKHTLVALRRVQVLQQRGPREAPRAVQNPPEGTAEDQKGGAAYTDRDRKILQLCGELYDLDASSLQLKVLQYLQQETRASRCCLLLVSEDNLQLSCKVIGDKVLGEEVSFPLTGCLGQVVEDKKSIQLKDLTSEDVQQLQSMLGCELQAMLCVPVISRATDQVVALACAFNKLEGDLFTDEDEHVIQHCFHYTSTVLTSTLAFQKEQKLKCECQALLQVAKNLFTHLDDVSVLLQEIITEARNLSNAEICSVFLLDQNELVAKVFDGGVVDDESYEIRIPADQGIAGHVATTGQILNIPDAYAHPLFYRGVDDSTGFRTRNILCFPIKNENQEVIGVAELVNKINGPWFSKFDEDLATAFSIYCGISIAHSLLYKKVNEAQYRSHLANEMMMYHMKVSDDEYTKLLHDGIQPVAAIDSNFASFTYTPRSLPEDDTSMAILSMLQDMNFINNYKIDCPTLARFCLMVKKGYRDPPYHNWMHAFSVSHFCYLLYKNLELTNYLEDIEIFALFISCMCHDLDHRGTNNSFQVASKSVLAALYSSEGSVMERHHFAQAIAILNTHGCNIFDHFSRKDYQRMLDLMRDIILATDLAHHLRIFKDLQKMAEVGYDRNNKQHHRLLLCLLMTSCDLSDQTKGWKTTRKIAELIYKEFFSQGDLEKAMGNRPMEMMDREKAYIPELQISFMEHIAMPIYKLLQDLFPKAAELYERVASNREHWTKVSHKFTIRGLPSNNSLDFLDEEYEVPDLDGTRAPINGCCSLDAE
T1 sequence (Q9Y233 whole entry): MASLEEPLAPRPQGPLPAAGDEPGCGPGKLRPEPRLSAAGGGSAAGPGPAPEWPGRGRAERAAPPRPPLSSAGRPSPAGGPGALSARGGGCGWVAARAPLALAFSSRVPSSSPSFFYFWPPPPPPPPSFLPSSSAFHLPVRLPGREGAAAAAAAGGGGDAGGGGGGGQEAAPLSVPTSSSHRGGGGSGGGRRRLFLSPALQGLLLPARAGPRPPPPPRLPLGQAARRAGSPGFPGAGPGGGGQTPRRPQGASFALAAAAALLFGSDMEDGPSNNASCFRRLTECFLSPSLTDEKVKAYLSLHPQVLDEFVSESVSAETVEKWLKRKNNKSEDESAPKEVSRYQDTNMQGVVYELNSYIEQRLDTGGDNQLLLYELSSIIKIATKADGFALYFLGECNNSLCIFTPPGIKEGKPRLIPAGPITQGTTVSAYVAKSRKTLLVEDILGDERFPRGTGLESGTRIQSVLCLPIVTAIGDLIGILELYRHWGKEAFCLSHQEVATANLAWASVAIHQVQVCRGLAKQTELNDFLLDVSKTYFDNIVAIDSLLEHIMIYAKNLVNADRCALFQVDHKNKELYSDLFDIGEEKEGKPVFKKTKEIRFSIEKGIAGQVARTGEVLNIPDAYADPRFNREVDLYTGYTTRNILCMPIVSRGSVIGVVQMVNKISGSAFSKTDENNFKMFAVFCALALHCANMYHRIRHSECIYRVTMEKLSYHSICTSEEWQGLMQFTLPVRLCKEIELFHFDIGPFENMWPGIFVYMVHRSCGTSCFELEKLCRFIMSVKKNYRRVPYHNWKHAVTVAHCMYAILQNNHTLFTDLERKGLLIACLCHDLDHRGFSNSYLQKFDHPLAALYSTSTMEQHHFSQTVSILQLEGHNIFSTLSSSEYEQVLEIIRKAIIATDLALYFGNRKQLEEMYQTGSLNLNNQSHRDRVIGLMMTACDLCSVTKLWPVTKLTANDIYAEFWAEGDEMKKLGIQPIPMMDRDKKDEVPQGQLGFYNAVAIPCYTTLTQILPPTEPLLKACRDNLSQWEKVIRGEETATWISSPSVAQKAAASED
Sequence of Dual 3',5'-cyclic-AMP and -GMP phosphodiesterase 11A (Homo sapiens) (Q9HCR9 whole entry, looked up): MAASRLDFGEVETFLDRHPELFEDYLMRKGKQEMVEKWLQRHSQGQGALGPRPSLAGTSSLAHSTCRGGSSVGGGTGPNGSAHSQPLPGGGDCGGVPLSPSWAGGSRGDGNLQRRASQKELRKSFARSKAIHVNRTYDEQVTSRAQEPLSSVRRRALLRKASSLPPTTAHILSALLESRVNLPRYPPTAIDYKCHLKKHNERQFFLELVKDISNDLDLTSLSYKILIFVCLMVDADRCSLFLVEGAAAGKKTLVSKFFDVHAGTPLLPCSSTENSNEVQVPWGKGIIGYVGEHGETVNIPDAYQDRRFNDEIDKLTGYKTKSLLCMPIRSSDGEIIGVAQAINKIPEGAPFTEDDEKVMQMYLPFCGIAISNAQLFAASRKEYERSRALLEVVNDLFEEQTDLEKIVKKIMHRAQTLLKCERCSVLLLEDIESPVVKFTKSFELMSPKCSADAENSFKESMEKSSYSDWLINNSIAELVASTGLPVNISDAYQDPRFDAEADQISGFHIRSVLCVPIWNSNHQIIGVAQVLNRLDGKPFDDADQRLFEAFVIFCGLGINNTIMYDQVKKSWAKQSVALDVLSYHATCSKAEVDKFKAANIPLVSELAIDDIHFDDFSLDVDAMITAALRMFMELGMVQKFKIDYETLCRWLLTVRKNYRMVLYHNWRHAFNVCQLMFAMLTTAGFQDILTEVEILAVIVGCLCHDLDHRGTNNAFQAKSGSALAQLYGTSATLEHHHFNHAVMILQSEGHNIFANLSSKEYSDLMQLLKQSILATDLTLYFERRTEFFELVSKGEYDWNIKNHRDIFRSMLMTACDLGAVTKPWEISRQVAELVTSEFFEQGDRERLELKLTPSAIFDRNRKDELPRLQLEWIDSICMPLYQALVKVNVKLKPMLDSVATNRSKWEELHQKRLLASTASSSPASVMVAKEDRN
Sequence of 3',5'-cyclic-AMP phosphodiesterase 4D (Homo sapiens) (Q08499 whole entry): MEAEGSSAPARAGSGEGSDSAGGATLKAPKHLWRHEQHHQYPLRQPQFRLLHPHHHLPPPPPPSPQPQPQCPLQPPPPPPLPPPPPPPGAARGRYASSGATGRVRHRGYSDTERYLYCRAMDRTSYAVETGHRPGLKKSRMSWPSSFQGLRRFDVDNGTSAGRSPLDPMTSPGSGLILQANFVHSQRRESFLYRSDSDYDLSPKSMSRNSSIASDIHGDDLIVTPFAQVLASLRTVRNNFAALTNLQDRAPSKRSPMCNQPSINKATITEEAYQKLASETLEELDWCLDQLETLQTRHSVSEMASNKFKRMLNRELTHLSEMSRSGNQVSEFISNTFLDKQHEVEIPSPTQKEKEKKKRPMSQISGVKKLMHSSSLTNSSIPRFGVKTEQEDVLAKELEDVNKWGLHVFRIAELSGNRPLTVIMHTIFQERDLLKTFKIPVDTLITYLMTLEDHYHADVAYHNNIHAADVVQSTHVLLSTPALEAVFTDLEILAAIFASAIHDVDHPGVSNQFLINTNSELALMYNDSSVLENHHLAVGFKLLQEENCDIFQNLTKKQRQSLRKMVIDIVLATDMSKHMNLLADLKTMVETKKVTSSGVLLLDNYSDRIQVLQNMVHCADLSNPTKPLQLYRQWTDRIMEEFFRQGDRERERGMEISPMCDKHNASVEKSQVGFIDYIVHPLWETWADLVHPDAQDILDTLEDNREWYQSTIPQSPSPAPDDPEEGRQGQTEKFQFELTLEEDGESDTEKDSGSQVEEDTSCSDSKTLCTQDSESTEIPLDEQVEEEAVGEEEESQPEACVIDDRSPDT
Sequence of Dual specificity calcium/calmodulin-dependent 3',5'-cyclic nucleotide phosphodiesterase 1A (Homo sapiens) (P54750 whole entry): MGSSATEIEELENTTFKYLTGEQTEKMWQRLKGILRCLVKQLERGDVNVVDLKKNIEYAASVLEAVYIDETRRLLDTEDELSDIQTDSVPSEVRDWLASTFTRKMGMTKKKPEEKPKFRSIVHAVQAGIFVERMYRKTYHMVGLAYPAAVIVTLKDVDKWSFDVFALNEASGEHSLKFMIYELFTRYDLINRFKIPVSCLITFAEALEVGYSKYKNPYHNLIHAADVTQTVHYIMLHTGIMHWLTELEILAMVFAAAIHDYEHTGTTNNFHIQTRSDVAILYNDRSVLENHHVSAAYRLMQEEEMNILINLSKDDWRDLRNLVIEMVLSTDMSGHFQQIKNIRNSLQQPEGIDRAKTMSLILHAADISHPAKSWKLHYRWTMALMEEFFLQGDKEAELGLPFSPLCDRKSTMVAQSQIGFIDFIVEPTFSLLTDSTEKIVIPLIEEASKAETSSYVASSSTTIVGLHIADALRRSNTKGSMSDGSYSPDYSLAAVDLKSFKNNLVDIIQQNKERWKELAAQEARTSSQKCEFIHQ

For `Cn1c2ccccc2c2cc(CCOc3ncccc3-c3cncnc3)cnc21`, the Drug metabolism (Liver microsome [1]) was “metabolite_detected”, the Drug metabolism (Liver microsome [2]) was “metabolite_detected” and the inhibition [3] was 23.9%. For the same molecule, the Drug metabolism (Liver microsome [4]) was “metabolite_detected”, the IC50 [5] was 24.2 nM and the remaining at 1 h, 1 µM [6] was 1.93%. The inhibition [7] was 0%, the Drug metabolism (Liver microsome [8]) was “metabolite_detected” and the inhibition [9] was 60%. For the same molecule, the Retention_time [10] was 14.51 min, the Drug metabolism (Liver microsome [11]) was “metabolite_detected” and the remaining at 1 h, 1 µM [12] was 0.45%. The inhibition [13] was 0%, the inhibition [14] was 10.7% and the Selectivity ratio (Homo sapiens) was 100. The inhibition [15] was 25.8%, the Drug metabolism (Liver microsome [16]) was “metabolite_detected” and the inhibition [17] was 12.4%. For the same molecule, the Drug metabolism (Liver microsome [18]) was “metabolite_detected”, the Drug metabolism (Liver microsome [19]) was “metabolite_detected” and the inhibition [20] was 9.8%. The inhibition [21] was 67.2%, the inhibition [22] was 92.5% and the Drug metabolism (Liver microsome [23]) was “metabolite_detected”. It also gave an inhibition [24] of 20.7%.
